Common to all, as to assay: NCI anticancer screen, dose series, 48 h
Assay [1] relates to ACHN renal.
Assay [2] deals with BT-549 breast.
The test system of assay [3] is HCT-116 colon.
In assay [4] the test system is IGROV1 ovarian.
The subject of assay [5] is NCI-H226 lung.
The test system of assay [6] is OVCAR-5 ovarian.
Assay [7] concerns OVCAR-8 ovarian.
For assay [8], the system named is SF-268 CNS.
Assay [9] relates to SK-MEL-28 melanoma.
For assay [10], the system named is U251 CNS.

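Values below derive from 48-hour exposures of cells grown in 96-well plates, with endpoints linearly interpolated between the two concentrations bracketing the appropriate inhibition level. At the TGI there is no net growth.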

Regarding `CC(C)(C)C1(COC(=O)c2ccc(N)cc2)COC1`, the TGI in [1], in [2], in [3], in [4], in assay [5] and in [6] was > 100 µM in each case. The TGI in [7], in [8], in [9] and in assay [10] was > 100 µM throughout.
With `Cc1cn(CC2=NCC(C)(C)N2)c(=O)[nH]c1=O`, the TGI in [1], in assay [2], in assay [3], in assay [4], in assay [5] and in [6] was > 100 µM throughout. Further, the TGI in assay [7], in assay [8], in [9] and in assay [10] was > 100 µM in each case.
In the case of `CC[C@H](C)[C@H]1NC(=O)[C@@H](NC(=O)[C@@H](CC(C)C)N(C)CC2CCCN2C(=O)C(C)=O)[C@@H](C)OC(=O)[C@H](Cc2ccc(OC)cc2)N(C)C(=O)C2CCCN2C(=O)[C@H](CC(C)C)NC(=O)[C@@H](C)C(=O)[C@H](C(C)C)OC(=O)C[C@@H]1O` (stereo partly specified), the TGI in assay [1] is 0.0389 µM; in assay [2], 0.0135 µM; in [3], 0.0102 µM; in [4], 0.016 µM; in assay [5] it was 0.0809 µM; in assay [6], 0.014 µM. For the same compound, the TGI came out at 0.0474 µM in assay [7], 0.0257 µM in [8], 0.0303 µM in [9] and 0.00534 µM in assay [10].
For `COc1cc(/C=C2\N=C(c3ccccc3)N(c3nc4c(OC)ccc(OC)c4s3)C2=O)cc(OC)c1OC`, the TGI in assay [1], in assay [2], in assay [3], in [4], in assay [6] and in assay [7] was > 100 µM each time. The TGI in assay [8], in assay [9] and in assay [10] was > 100 µM throughout.
On to `CCCNC(C#N)c1ccc(C(C#N)NCCC)cc1` (stereo unspecified), for which the TGI in assay [1], in assay [2], in assay [3], in assay [4], in [5] and in [6] was > 100 µM each time. Moreover, the TGI in assay [7], in assay [8], in [9] and in assay [10] was > 100 µM each time.
In the case of `O=c1c(C=Nc2ccc([N+](=O)[O-])cc2)c(O)n(-c2ccccc2)c(=O)n1-c1ccccc1`, the TGI in assay [1], in [2], in assay [3], in assay [4], in assay [5] and in [6] was > 100 µM in each case. Moreover, the TGI in assay [7], in assay [8] and in assay [10] was > 100 µM in each case.
For `Cc1ccc(C(C2C(=O)N(C)C(=O)N(C)C2=O)C(F)(F)C(=O)N(C)C)cc1` (stereo unspecified), the TGI in assay [1], in assay [2], in [3], in [5], in assay [6] and in [7] was > 100 µM throughout. For the same compound, the TGI in assay [8], in [9] and in [10] was > 100 µM throughout.
For the compound `CSc1c(C#N)c(=O)[nH]c2n[nH]c(C)c12`, the TGI in assay [2], in assay [3], in assay [5], in assay [6], in assay [7] and in [8] was > 100 µM each time. The TGI in [9] and in [10] was > 100 µM in each case.
With `COC(=O)n1c(=O)n(-c2ccccc2)c(=O)n1C(=O)OC`, the TGI in assay [2], in assay [3], in assay [4], in [5], in [6] and in assay [7] was > 100 µM each time. In addition, the TGI in [8], in [9] and in [10] was > 100 µM each time.
Turning to `O=c1cc(N2CCCC2)[nH]c(=O)n1-c1cccc(C(F)(F)F)c1`, the TGI in [1], in assay [2], in assay [3], in assay [4], in [5] and in assay [6] was > 100 µM each time. The TGI in assay [7], in assay [8] and in assay [10] was > 100 µM throughout.
With `CCCCc1ccc(Nc2ncc3[nH]cnc3n2)cc1`, the TGI in assay [1] is 31.7 µM; in assay [2], 52.8 µM; in assay [3] it was 34.5 µM; in assay [4] it was 39.6 µM; in [5] it was 45.4 µM; in assay [6] it was > 100 µM. The figures for the TGI in assay [7], in assay [8] and in [10] were 36.3 µM, 50.1 µM and 60.4 µM, respectively.
For `O=C(CCCCCCCCC(=O)N1C(=O)CC(=O)N(c2cccc(Cl)c2)C1=S)N1C(=O)CC(=O)N(c2cccc(Cl)c2)C1=S`, the TGI in assay [1], in assay [2], in [3], in assay [6], in [7] and in [8] was > 100 µM each time. In addition, the TGI in assay [10] was > 100 µM.
As for `C=C(CC[C@@H](C(=O)O)[C@H]1[C@H](O)C[C@@]2(C)C3=CC[C@@H](C(=C)C)[C@](C)(CCC(=O)O)C3=CC[C@]12C)C(C)C`, the TGI in assay [1] came to 31.4 µM; in [2] it was 33 µM; in [3], 30.7 µM; in [5], 36.3 µM; in [6], 30.5 µM; in assay [7], 39.9 µM. In addition, the TGI came out at 40 µM in assay [9] and 32.8 µM in assay [10].
Turning to `Fc1ccc(N=NN2CCCC2)cc1`, the TGI in [1], in [2], in assay [3], in assay [4], in [5] and in assay [6] was > 100 µM in each case. Moreover, the TGI in [8], in [9] and in assay [10] was > 100 µM each time.
